Where two headings read alike, the source gives them in different places. *1 amine or outer side, *2 acyl side, *3 side chain or, on linkers, in order; H or OH if unused. Where a SMILES comes first, the peptide text is derived from it. Where no end group is shown, it is not given here. [ ]: non-standard residue; d: D form. The star is where a group is joined. Dolaproine = CO[C@@H]([C@@H]1CCCN1)[C@@H](C)C(=O)O; Hexanoyl(6-maleimido) = O=C1C=CC(=O)N1CCCCCC(=O)*; Dil = CC[C@H](C)[C@H](NC)[C@@H](CC(=O)O)OC; PABC = O=C(OCc1ccc(N[*:1])cc1)[*:2]; X1 = C[C@@H](N*)[C@@H](O)c1ccccc1; Cit = NC(=O)NCCC[C@H](N)C(=O)O; NMeV = CN[C@H](C(=O)O)C(C)C
How the values were obtained:
[1] = tested on: PC3-Luc2-PSMA+/ANXA1-positive cells; assay: Cytotoxicity (Cell Counting Kit-8) to ANXA1-positive PC3 cells; format: cell-based, human
Method: (§1) The cell viability was analyzed by Cell Counting Kit-8 (Dojindo), and the IC50 value was calculated (FIG. 40).

[2] = tested on: PSMA-negative/ANXA1-negative human prostate cancer cells PC3 and PSMA-positive/ANXA1-positive PC3 cells; assay: Anticancer treatment in femur subcutaneous PC3 tumor model; format: in vivo, nude mice; conditions: vcMMAE-dhp7 1.25 mg/kg or vcMMAE 0.919 mg/kg intraperitoneal every four days, three courses; femur tumors
Method: (§2) As control, 0.919 mg/kg (22.975 ng vcMMAE/25 g mouse) of vcMMAE alone (molecular weight: 1316.6) was administered. The tumor size was monitored by measuring the average radiance (photon/sec/cm^2/sr) of the luciferase-expressing tumor after injection of luciferin (150 mg/mouse using an IVIS system. After three courses of administration, the average radiance of the luciferase-expressing tumor and the body weight were evaluated (FIG. 46).

[3] = tested on: PSMA-negative/ANXA1-negative human prostate cancer cells PC3 and PSMA-positive/ANXA1-positive PC3 cells; assay: Anticancer treatment in back subcutaneous PC3 tumor model; format: in vivo, nude mice
Method: 1 × 10^6 PSMA-negative/ANXA1-negative human prostate cancer cells PC3 were inoculated into the left back of nude mice, and 1 × 10^6 PSMA-positive/ANXA1-positive PC3 cells were inoculated into the right back of the nude mice. […] As control, 0.919 mg/kg (22.975 ng vcMMAE/25 g mouse) of vcMMAE alone (molecular weight: 1316.6) was administered. The tumor size was monitored by measuring the average radiance (photon/sec/cm^2/sr) of the luciferase-expressing tumor after injection of luciferin (150 mg/mouse) using an IVIS system. After three courses of administration, the tumor size, body weight, pathological test, blood biochemical test, and blood cell count test values were evaluated (FIG. 41).

[4] = tested on: PSMA-positive/ANXA1-positive PC3 cells; assay: Anticancer treatment in femur PC3 tumor model at same vcMMAE dose; format: in vivo, mice; conditions: four courses; for average radiance of luciferase-expressing tumor: vcMMAE-dhp7 2.14 mg/kg or vcMMAE 1.25 mg/kg intraperitoneal every four days
Method: as §2, with “2 × 10^6 PSMA-positive/ANXA1-positive PC3 cells were inoculated into the right femur. […] As” for “As”, “1.25” for “0.919”, “(31.25” for “(22.975”, “four” for “three”, “48).” for “46).”

[5] = tested on: mouse bladder cancer cells MBT2; assay: Boron neutron capture therapy (BNCT) in mouse bladder cancer model; format: in vivo, C3H/HeN mice
Method: Since it was found in Example 6 that ^10BSH-dhp7 is taken up into Anxa1-positive cancer cells, boron neutron capture therapy by ^10BSH-dhp7 was attempted in a mouse bladder cancer model.
Starting from 48 hours after the administration, the tumor area was irradiated with thermal neutrons at 20 MeV 100 mA for 60 minutes using an accelerator manufactured by Sumitomo Heavy Industries (dose: 1.63 × 10^12/cm^2, average 0.23 Gy). One week after the irradiation, second BNCT treatment was performed. 24 hours prior to irradiation with thermal neutrons, 20 mg/kg (0.4 mg/20 g mouse) of ^10BSH-dhp7 was intraperitoneally administered. Irradiation with thermal neutrons was then performed. One week after the second irradiation, mice of each group were sacrificed. The tumor size and the tumor weight were measured, and pathological analysis of the resected tissue was performed to verify the antitumor effect. The tumor volume was measured from the start of administration until sacrifice by the calculation formula: V = long axis × short axis × short axis/2) (FIG. 17).

[6] = tested on: MBT2 and PC3-PSMA+ cells; assay: Uptake of ^10BSH in cancer cells by immunofluorescent staining with anti-^10BSH antibody; format: cell-based; conditions: 50 µg added, 24 hours; compared with ^10BSH
Method: Uptake of ^10BSH-dhp7 in cancer cells was examined. 50 µg of ^10BSH-dhp7 or ^10BSH was added to MBT2 and PC3-PSMA+ cells seeded in a 3.5 cm culture dish (ib81156) manufactured by ibidi. 24 hours later, the cells were washed with PBS three times and then fixed with 4% PFA. After blocking with 3% BSA BD PhosFlow perm/wash buffer I (BD557885), 3% BSA BD PhosFlow perm/wash buffer I containing 1 µg/ml of the rabbit anti-^10BSH polyclonal antibody #52 was reacted at room temperature for one hour with ^10BSH taken up into the cells. After washing with PBS three times, it was reacted at room temperature for one hour with an APC-labeled anti-mouse IgG antibody (diluted 1000-fold) to detect the rabbit anti-^10BSH polyclonal antibody, and washed with PBS three times. Then, intracellular uptake of ^10BSH-dhp7 or ^10BSH in each cancer cell was examined by a fluorescence microscope (Keyence BZ9000) (FIG. 16).

[7] = tested on: human prostate cancer cells PC3-PSMA-/ANXA1-; assay: BNCT in ANXA1-negative prostate cancer model; format: in vivo, nude mice; conditions: ^10BSH 50 mg/kg or conjugate 330 mg/kg intraperitoneal, two irradiations
Method: (§3) Since it was found in Example 10 that the boron concentration in the tumor tissue by administration of ^10BSH-vc-dhp7 is sufficient for the antitumor effect of neutron capture therapy (BNCT), boron neutron capture therapy by EMCS-^10BSH-vc-dhp7 was attempted in ANXA1-negative human prostate cancer and ANXA 1-positive head and neck cancer models. […] Starting from 24 hours after the administration, the tumor area was irradiated with thermal neutrons at 20 MeV 100 mA for 60 minutes using an accelerator manufactured by Sumitomo Heavy Industries (dose: 1.63 × 10^12/cm^2, average 0.23 Gy). One week after the irradiation, second BNCT treatment was performed.
(§4) Irradiation with thermal neutrons was then performed. One week after the second irradiation, mice of each group were sacrificed. The tumor size and the tumor weight were measured, and pathological analysis of the resected tissue was performed to verify the antitumor effect. The tumor volume was measured from the start of administration until sacrifice by the calculation formula: V = long axis × short axis × short axis/2) (FIGS. 38 and 39).

[8] = tested on: human head and neck cancer cells SAS; assay: BNCT in ANXA1-positive head and neck cancer model; format: in vivo, nude mice
Method: as §3, §4

[9] = State of dissolution in physiological saline at dosing concentration; format: physicochemical; conditions: dosing solutions: ^10BSH 1.25 mg/25 g mouse, ^10BSH-vc-dhp7 8.25 mg/25 g mouse, IF7-^10BSH 10.08 mg/25 g mouse
Excerpt: Thus, it was shown that ^10BSH-vc-dhp7 is more soluble and more flexible in designing the dosage form than IF7-^10BSH.

[10] = tested on: PC3, SAS, and MG-63 cells; assay: Uptake of ^10BSH in PC3, SAS and MG-63 cells by immunofluorescent staining; format: cell-based, human; conditions: compared with non-addition group
Method: (§5) Uptake of ^10BSH-vc-dhp7 in cancer cells was examined. 330 µg of ^10BSH-vc-dhp7, 403.6 µg of […](EMCS-^10BSH)RR (IF7-^10BSH (a compound described in WO2019244954)) (SEQ ID NO: 40 ([…])), or 50 µg of ^10BSH was added to PC3-PSMA+ and PC3-PSMA- cells seeded in a 3.5 cm culture dish (ib81156) manufactured by ibidi. 24 hours later, the cells were washed with PBS three times and then fixed with 4% PFA. Each peptide-boron compound was prepared to have a boron concentration that allows 50 µg of ^10BSH to be finally added. After blocking with 3% BSA BD PhosFlow perm/wash buffer I (BD557885), 3% BSA BD PhosFlow perm/wash buffer I containing 1 µg/ml of the rabbit anti-^10BSH polyclonal antibody #52 was reacted at room temperature for one hour with ^10BSH taken up into the cells. After washing with PBS three times, it was reacted at room temperature for one hour with an APC-labeled anti-mouse IgG antibody (diluted 1000-fold) to detect the rabbit anti-^10BSH polyclonal antibody, and washed with PBS three times. Then, intracellular uptake of […], IF7-^10BSH, or ^10BSH in each cancer cell was examined by a fluorescence microscope (Keyence BZ9000) (FIGS. 27 and 28).

[11] = tested on: PC3-PSMA+ and PC3-PSMA- cells; assay: Uptake of ^10BSH in PC3 cells by immunofluorescent staining (Val-Cit conjugate); format: cell-based, human
Method: as §5

[12] = molecular target: L-MC16 (L-amino acid MC16 peptide, 15 N-terminal residues of annexin A1) (human or mouse ANXA1 ("such as human ANXA1 or mouse ANXA1")); assay: BLI (Octet K2), biotinylated D-peptide on SSA biosensor, L-MC16 as analyte, 37°C, 1:1 model
[13] = tested on: PC3-PSMA-/ANXA1- and PC3-PSMA+/ANXA1+; conditions: mouse, in vivo, ip, 28.7 mg/kg
Excerpt: Further, variation in accumulation depending on the tumor size was examined. […] Tumor accumulation was examined in the same manner as above (FIG. 22).

[14] = tested on: human head and neck cancer cells SAS and human osteosarcoma cancer cells MG-63; conditions: mouse, in vivo
Method: 96 hours after the administration, the mice were sacrificed, and the main organs were resected and then imaged ex vivo.

[15] = tested on: PC3-Luc2-PSMA-/ANXA1-negative cells; assay: Cytotoxicity (Cell Counting Kit-8) to ANXA1-negative PC3 cells; format: cell-based, human; conditions: 37°C for 24 hours; cell viability by Cell Counting Kit-8
Method: as §1

## CC[C@H](C)[C@@H]([C@@H](CC(=O)N1CCC[C@H]1[C@H](OC)[C@@H](C)C(=O)N[C@H](C)[C@@H](O)c1ccccc1)OC)N(C)C(=O)[C@@H](NC(=O)[C@H](C(C)C)N(C)C(=O)OCc1ccc(NC(=O)[C@H](CCCNC(N)=O)NC(=O)[C@@H](NC(=O)CCCCCN2C(=O)C=CC2=O)C(C)C)cc1)C(C)C [vcMMAE] ({Hexanoyl(6-maleimido)}-V[Cit][PABC][NMeV]V[Dil][Dolaproine]-X1)
[1]
  in-vitro sensitivity of Anxa1-positive cells relative to ANXA1-negative cells: twice
[2]
  average radiance of luciferase-expressing tumor: tended to increase
[3]; 0.919 mg/kg, post-treatment
  white blood cell count: reduced
[4]
  average radiance of luciferase-expressing tumor: tended to increase

## EMCS-^10BSH-hpnevrs (HPNEVRS; not fully specified (some residues, N-terminus); printed as EMCS-^10BSH-hpnevrs) [^10BSH-dhp7]
[5]; 20 mg/kg intraperitoneal, no irradiation
  tumor reduction effect, non-BNCT treatment group: no tumor reduction effect was observed
[5]; 20 mg/kg intraperitoneal, two thermal neutron irradiations, one week after the second irradiation
  tumor reduction effect, BNCT treatment group: tumors almost completely disappeared
[5]; administration and BNCT treatment group
  residual tumors in pathological analysis of resected tissues: no residual tumors in four of eight cases
[6]
  intracellular uptake of ^10BSH (fluorescence): dotted intracellular fluorescence was observed

## EMCS-^10BSH-val-cit-hpnevrs ([dH][dP][dN][dE][dV][dR][dS]; not fully specified (N-terminus); printed as EMCS-^10BSH-val-cit-hpnevrs) [^10BSH-vc-dhp7]
[7]
  tumor reduction effect, BNCT treatment group: no tumor reduction effect was observed
[8]; ANXA1-positive head and neck cancer model, 330 mg/kg intraperitoneal, starting immediately after the first BNCT
  tumor growth suppressing effect, BNCT treatment group: tumor growth suppressing effect more remarkable than that in the ^10BSH and BNCT treatment group
[8]; one week after the second irradiation
  tumor volume compared with ^10BSH and BNCT treatment group: reduced tumor volume
[9]
  state in physiological saline: in a dissolved state
[10]
  intracellular intake of ^10BSH: statistically significant intracellular intake of ^10BSH in all cells
[11]; ANXA1-positive PC3 cells, versus IF7-^10BSH and ^10BSH treatment groups
  efficiency of intracellular intake of ^10BSH: statistically significantly higher
[11]; PSMA-negative cells expressing less ANXA1 on the cell surface
  uptake in PSMA-negative cells compared with PSMA-positive cells: took up ^10BSH-vc-dhp7 less than the PSMA-positive cells did
[11]; amount equal to 50 µg of ^10BSH, 24 hours, compared with ^10BSH
  intracellular uptake of ^10BSH (fluorescence): more dotted intracellular fluorescence was observed

## IFLLWQRK(EMCS-^10BSH)RR (EMCS-10BSH boron cluster; C-terminal RR) [IF7-^10BSH, reference compound]
[9]
  state in physiological saline: poorly soluble and cloudy

## biotin-dhp7 (D-amino acid peptide hpnevrs modified with biotin at the N-terminus)
[12]
  Kd: 480 nM

## biotin-dqy7 (D-amino acid peptide qyatnlk modified with biotin at the N-terminus)
[12]
  Kd: 990 nM

## biotin-dst7 (D-amino acid peptide stsrntl modified with biotin at the N-terminus)
[12]
  Kd: 720 nM

## c(MI-Cy7.5)-vc-hpnevrs [Cy7.5-vc-dhp7]
[13]
  start of selective accumulation in the tumor tissue: 60 min
  tumor accumulation maintained until: 96 h
[14]
  start of selective accumulation in the tumor tissue: 60 min
  time of maximum tumor accumulation: 2 to 24 h
  tumor accumulation maintained until: 96 h

## c(vcMMAE)-hpnevrs [vcMMAE-dhp7]
[1]; 37°C for 24 hours, cell viability by Cell Counting Kit-8
  IC50 value: 122.7 ng
[1]; PC3 cells
  in-vitro sensitivity of Anxa1-positive cells relative to ANXA1-negative cells: twice
[2]
  average radiance of luciferase-expressing tumor: reduced similarly over the three courses of treatment
[15]
  IC50 value: 204.5 ng
[3]; 1.25 mg/kg intraperitoneal every four days, three courses, back subcutaneous tumors
  average radiance of luciferase-expressing tumor: almost completely reduced
[3]; in contrast to vcMMAE alone administration group
  appearance and HE staining of resected tumors: marked necrotic change and fewer residual tumors were observed
[3]; versus vcMMAE treatment group
  CD31-positive vessel density in the residual tumors: statistically significantly reduced
[4]
  resected tumor weights compared with vcMMAE treatment group: markedly smaller
  average radiance of luciferase-expressing tumor: markedly reduced

Source: patent EP4772523A1, “D-PEPTIDE AND USE THEREOF” (HIROSAKI UNIVERSITY, priority 2023, dated 2025)
